Measured values as given in US9249125B2, “Pyrazole derivatives as p38 MAP inhibitors” (RESPIVERT LIMITED, priority 2012, dated 2016).

How the values were obtained:
d-U937 cells = assay: Cell viability: MTT assay; type: cell-based, human; conditions: 1 μg/mL
Description: Differentiated U937 cells are pre-incubated with each test compound (final concentration 1 μg/mL or 10 μg/mL in 200 μL media indicated below) under two protocols: the first for 4 hr in 5% FCS RPMI1640 media and the second in 10% FCS RPMI1640 media for 24 h. The supernatant is replaced with new media (200 μL) and MTT stock solution (10 μL, 5 mg/mL) is added to each well. After incubation for 1 hr the media are removed, DMSO (200 μL) is added to each well and the plates are shaken lightly for 1 hr prior to reading the absorbance at 550 nm. The percentage loss of cell viability is calculated for each well relative to vehicle (0.5% DMSO) treatment. Consequently an apparent increase in cell viability for drug treatment relative to vehicle is tabulated as a negative percentage.

GSK3α = GSK3α (Homo sapiens (Human), UniProt P49840); assay: GSK 3α enzyme inhibition (FRET, Z-LYTE); type: biochemical
Description: (§1) The enzyme inhibitory activities of compounds disclosed herein are determined by FRET using synthetic peptides labelled with both donor and acceptor fluorophores (Z-LYTE, Invitrogen Ltd., Paisley, UK).
The inhibitory activities of compounds of the invention against the GSK 3α enzyme isoform (Invitrogen), are evaluated by determining the level of activation/phosphorylation of the target peptide. The GSK3-α protein (500 ng/mL, 2.5 μL) is mixed with the test compound (2.5 μL at either 4 μg/mL, 0.4 μg/mL, 0.04 μg/mL, or 0.004 μg/mL) for 2 hr at RT. The FRET peptide (8 μM, 2.5 μL), which is a phosphorylation target for GSK3α, and ATP (40 μM, 2.5 μL) are then added to the enzyme/compound mixture and the resulting mixture incubated for 1 hr. Development reagent (protease, 5 μL) is added for 1 hr prior to detection in a fluorescence microplate reader (Varioskan® Flash, ThermoFisher Scientific).
(§2) In all cases, the site-specific protease cleaves non-phosphorylated peptide only and eliminates the FRET signal. Phosphorylation levels of each reaction are calculated using the ratio of coumarin emission (donor) over fluorescein emission (acceptor), for which low ratios indicate high phosphorylation and high ratios indicate low phosphorylation levels.

p38 MAPKα = p38 MAPKα (Homo sapiens (Human), UniProt Q16539); assay: p38 MAPKα enzyme inhibition (FRET, Z-LYTE); type: biochemical
Description: as §1
The inhibitory activities of test compounds against the p38 MAPKα isoform (MAPK14: Invitrogen), are evaluated indirectly by determining the level of activation/phosphorylation of the down-stream molecule, MAPKAP-K2. The p38 MAPKα protein (80 ng/mL, 2.5 μL) is mixed with the test compound (2.5 μL of either 4 μg/mL, 0.4 μg/mL, 0.04 μg/mL or 0.004 μg/mL) for 2 hr at RT. […] The mixture is incubated for 1 hr at RT. Development reagent (protease, 5 μL) is added for 1 hr prior to detection in a fluorescence microplate reader (Varioskan® Flash, ThermoFisher Scientific).
as §2

cSrc = cSrc (Homo sapiens (Human), UniProt P12931); assay: c-Src enzyme inhibition (FRET, Z-LYTE); type: biochemical
Description: as §1
(§3) The relevant enzyme (3000 ng/mL or 2000 ng/mL respectively, 2.5 μL) is incubated with the test compound (either 4 μg/mL, 0.4 μg/mL, 0.04 μg/mL, or 0.004 μg/mL, 2.5 μL each) for 2 hr at RT. The FRET peptides (8 μM, 2.5 μL), and appropriate ATP solutions (2.5 μL, 800 μM for c-Src, and 60 μM ATP for Syk) are then added to the enzymes/compound mixtures and incubated for 1 hr. Development reagent (protease, 5 μL) is added for 1 hr prior to detection in a fluorescence microplate reader (Varioskan® Flash, ThermoFisher Scientific).
as §2

[1] = test system: Poly I:C-induced ICAM-1 expression in BEAS2B cells; assay: Poly I:C-induced ICAM-1 expression in BEAS2B cells; type: cell-based; conditions: Homo sapiens, BEAS-2B, read-out: Poly IC induced ICAM1 in BEAS2B IC50
Description: Poly I:C is used in these studies as a simple, RNA virus mimic. Poly I:C-Oligofectamine mixture (1 μg/mL Poly I:C, ±2% Oligofectamine, 25 uL) (Invivogen Ltd., San Diego, Calif., and Invitrogen, Carlsbad, Calif., respectively) is transfected into BEAS2B cells (human bronchial epithelial cells, ATCC). Cells are pre-incubated with final concentrations of test compounds for 2 hr and the level of ICAM1 expression on the cell surface is determined by cell-based ELISA. At a time point 18 hr after poly I:C transfection, cells are fixed with 4% formaldehyde in PBS (100 μL) and then endogenous peroxidase is quenched by the addition of washing buffer (100 μL, 0.05% Tween in PBS: PBS-Tween) containing 0.1% sodium azide and 1% hydrogen peroxide. Cells are washed with wash-buffer (3×200 μL). and after blocking the wells with 5% milk in PBS-Tween (100 μL) for 1 hr, the cells are incubated with anti-human ICAM-1 antibody (50 μL) (Cell Signaling Technology, Danvers, Mass.) in 1% BSA PBS overnight at 4° C.
The cells are washed with PBS-Tween (3×200 μL) and incubated with the secondary antibody (100 μL) (HRP-conjugated anti-rabbit IgG, Dako Ltd., Glostrup, Denmark). The cells are then incubated with of substrate (50 μL) for 2-20 min, followed by the addition of stop solution (50 μL, 1N H2SO4). The ICAM-1 signal is detected by reading and reading the absorbance at 450 nm against a reference wavelength of 655 nm using a spectrophotometer. The cells are then washed with PBS-Tween (3×200 μL) and total cell numbers in each well are determined by reading absorbance at 595 nm after Crystal Violet staining (50 μL of a 2% solution in PBS) and elution by 1% SDS solution (100 μL) in distilled water. The measured OD 450-655 readings are corrected for cell number by dividing with the OD595 reading in each well.

[2] = test system: LPS-induced IL-8 release in d-U937 cells; assay: LPS-induced IL-8 release in d-U937 cells; type: cell-based; conditions: Homo sapiens, dU937, read-out: LPS Induced Release of Cytokine in d-937 Cells IL-8 IC50
Description: U937 cells, a human monocytic cell line, are differentiated into macrophage-type cells by incubation with PMA (100 ng/mL) for 48 to 72 hr. Cells are pre-incubated with final concentrations of test compound for 2 hr and are then stimulated with LPS (0.1 μg/mL) (from E. coli: O111:B4, Sigma) for 4 hr. The supernatant is collected for determination of TNFα and IL-8 concentrations by sandwich ELISA (Duo-set, R&D systems). […] The relative 50% effective concentration (REC50) is determined from the resultant concentration-response curve. The inhibition of IL-8 production is calculated at each concentration of test compound by comparison with vehicle control. […] (b) LPS-Induced TNFα/IL-8 Release in PBMC Cells

Syk = Syk (Homo sapiens (Human), UniProt P43405); assay: Syk enzyme inhibition (FRET, Z-LYTE); type: biochemical
Description: as §1, §3, §2

GSK3α, sequence (P49840 whole entry): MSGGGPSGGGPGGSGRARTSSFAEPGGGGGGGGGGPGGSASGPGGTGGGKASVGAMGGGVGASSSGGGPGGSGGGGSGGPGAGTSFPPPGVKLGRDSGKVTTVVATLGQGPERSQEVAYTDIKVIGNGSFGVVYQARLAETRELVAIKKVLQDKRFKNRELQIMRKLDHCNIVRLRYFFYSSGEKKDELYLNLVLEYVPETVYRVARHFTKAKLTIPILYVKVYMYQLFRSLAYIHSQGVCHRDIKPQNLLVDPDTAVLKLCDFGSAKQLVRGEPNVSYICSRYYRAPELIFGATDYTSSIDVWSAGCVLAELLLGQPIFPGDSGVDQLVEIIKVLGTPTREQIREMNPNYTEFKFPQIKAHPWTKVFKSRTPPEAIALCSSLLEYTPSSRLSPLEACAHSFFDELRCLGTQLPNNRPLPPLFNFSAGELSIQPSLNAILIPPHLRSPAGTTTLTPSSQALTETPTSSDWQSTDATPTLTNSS
p38 MAPKα, sequence (Q16539 whole entry): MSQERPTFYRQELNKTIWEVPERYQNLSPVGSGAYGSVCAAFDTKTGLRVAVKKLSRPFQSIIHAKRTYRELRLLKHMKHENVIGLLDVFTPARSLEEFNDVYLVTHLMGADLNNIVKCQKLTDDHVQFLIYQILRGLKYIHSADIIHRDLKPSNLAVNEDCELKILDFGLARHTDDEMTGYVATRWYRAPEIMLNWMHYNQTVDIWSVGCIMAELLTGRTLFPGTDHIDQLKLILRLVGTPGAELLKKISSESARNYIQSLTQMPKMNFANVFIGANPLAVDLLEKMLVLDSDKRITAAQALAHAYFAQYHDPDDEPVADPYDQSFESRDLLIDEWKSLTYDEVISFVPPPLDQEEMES
cSrc, sequence (P12931 whole entry, looked up): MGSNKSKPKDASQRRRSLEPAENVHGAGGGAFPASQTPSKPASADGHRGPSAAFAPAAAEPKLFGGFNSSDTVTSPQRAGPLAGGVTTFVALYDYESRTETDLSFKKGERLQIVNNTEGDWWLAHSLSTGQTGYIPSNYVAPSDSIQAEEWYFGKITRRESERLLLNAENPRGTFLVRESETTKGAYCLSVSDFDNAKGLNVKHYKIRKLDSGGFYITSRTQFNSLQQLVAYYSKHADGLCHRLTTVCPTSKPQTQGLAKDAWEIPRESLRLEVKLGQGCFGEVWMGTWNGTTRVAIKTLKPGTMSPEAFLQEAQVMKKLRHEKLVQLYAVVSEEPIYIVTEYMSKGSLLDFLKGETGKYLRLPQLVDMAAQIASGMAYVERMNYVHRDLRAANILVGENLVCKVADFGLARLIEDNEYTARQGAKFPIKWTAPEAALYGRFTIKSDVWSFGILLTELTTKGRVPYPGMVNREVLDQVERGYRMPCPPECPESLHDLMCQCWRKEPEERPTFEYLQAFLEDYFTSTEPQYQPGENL

Compound	MTT Assay Cell viability at time point in d-U937 cells 4 h (d-U937 cells)	MTT Assay Cell viability at time point in d-U937 cells 24 h (d-U937 cells)	IC50 (GSK3α)	IC50 (p38 MAPKα)	IC50 (cSrc)	IC50 [1]	IC50 [2]	IC50 (Syk)
COc1ccc(-n2nc(C3CCOC3)cc2NC(=O)Nc2ccc(Oc3ccnc(Nc4ccc5[nH]ncc5c4)n3)c3ccccc23)cc1 (stereo not drawn) [Example 8, 1-(4-((2-((1H-Indazol-5-yl)amino)pyrimidin-4-yl)oxy)naphthalen-1-yl)-3-(1-(4-methoxyphenyl)-3-(tetrahydrofuran-3-yl)-1H-pyrazol-5-yl)urea]	−ve (−ve and +ve indicate that the value is below and above respectively, the no significant effect threshold, defined as 30% inhibition at 1 μg/mL at the time point indicated.)	−ve (−ve and +ve indicate that the value is below and above respectively, the no significant effect threshold, defined as 30% inhibition at 1 μg/mL at the time point indicated.)	837 nM	7 nM	2 nM	16.8 nM	3.6 nM	8 nM
Cc1cc(Nc2cc(Oc3ccc(NC(=O)Nc4cc(C(C)(C)C)nn4-c4ccc(OCCN(C)C)cc4)c4ccccc34)ccn2)cc2cn[nH]c12 [Example 58]	−ve (−ve and +ve indicate that the value is below and above respectively, the no significant effect threshold, defined as 30% inhibition at 1 μg/mL at the time point indicated.)	−ve (−ve and +ve indicate that the value is below and above respectively, the no significant effect threshold, defined as 30% inhibition at 1 μg/mL at the time point indicated.)	1260 nM	< 1 nM	< 1 nM	8.3 nM	–	–
CC(C)c1cc(NC(=O)Nc2ccc(Oc3ccnc(Nc4ccc5[nH]ncc5c4)c3)c3ccccc23)n(-c2cccc(OCCN3CCOCC3)c2)n1 [Example 51]	−ve (−ve and +ve indicate that the value is below and above respectively, the no significant effect threshold, defined as 30% inhibition at 1 μg/mL at the time point indicated.)	−ve (−ve and +ve indicate that the value is below and above respectively, the no significant effect threshold, defined as 30% inhibition at 1 μg/mL at the time point indicated.)	4900 nM	2 nM	< 1 nM	23.8 nM	–	< 1 nM
Cc1cc(Nc2cc(Oc3ccc(NC(=O)Nc4cc(C(C)(C)C)nn4-c4ccc(OCCN5CCOCC5)cc4)c4ccccc34)ccn2)cc2cn[nH]c12 [Example 68]	−ve (−ve and +ve indicate that the value is below and above respectively, the no significant effect threshold, defined as 30% inhibition at 1 μg/mL at the time point indicated.)	−ve (−ve and +ve indicate that the value is below and above respectively, the no significant effect threshold, defined as 30% inhibition at 1 μg/mL at the time point indicated.)	3040 nM	40 nM	3 nM	7.6 nM	–	< 1 nM
Cc1cc(Nc2nccc(Oc3ccc(NC(=O)Nc4cc(C(C)(C)C)nn4-c4ccc(OCCN5CCOCC5)nc4)c4ccccc34)n2)cc2cn[nH]c12 [Example 91, 1-(3-(tert-butyl)-1-(6-(2-morpholinoethoxy)pyridin-3-yl)-1H-pyrazol-5-yl)-3-(4-((2-((7-methyl-1H-indazol-5-yl)amino)pyrimidin-4-yl)oxy)naphthalen-1-yl)urea]	−ve (−ve and +ve indicate that the value is below and above respectively, the no significant effect threshold, defined as 30% inhibition at 1 μg/mL at the time point indicated.)	−ve (−ve and +ve indicate that the value is below and above respectively, the no significant effect threshold, defined as 30% inhibition at 1 μg/mL at the time point indicated.)	1210 nM	20 nM	1 nM	1.9 nM	1.6 nM	1 nM
Cc1cc(Nc2nccc(Oc3ccc(NC(=O)Nc4cc(C(C)(C)C)nn4-c4ccc(OCCN5CCOCC5)cc4)c4ccccc34)n2)cc2cn[nH]c12 [Example 73, 1-(3-(tert-butyl)-1-(4-(2-morpholinoethoxy)phenyl)-1H-pyrazol-5-yl)-3-(4-((2-((7-methyl-1H-indazol-5-yl)amino)pyrimidin-4-yl)oxy)naphthalen-1-yl)urea]	−ve (−ve and +ve indicate that the value is below and above respectively, the no significant effect threshold, defined as 30% inhibition at 1 μg/mL at the time point indicated.)	−ve (−ve and +ve indicate that the value is below and above respectively, the no significant effect threshold, defined as 30% inhibition at 1 μg/mL at the time point indicated.)	1800 nM	69 nM	5 nM	2.2 nM	2.6 nM	4 nM
CC(C)(C)c1cc(NC(=O)Nc2ccc(Oc3ccnc(Nc4ccc5[nH]ncc5c4)c3)c3ccccc23)n(-c2cccc(OCCN3CCOCC3)c2)n1 [Example 52]	−ve (−ve and +ve indicate that the value is below and above respectively, the no significant effect threshold, defined as 30% inhibition at 1 μg/mL at the time point indicated.)	−ve (−ve and +ve indicate that the value is below and above respectively, the no significant effect threshold, defined as 30% inhibition at 1 μg/mL at the time point indicated.)	4970 nM	22 nM	3 nM	10.2 nM	–	18 nM
